SMILES strings stand for the structures. pIC50: −log10 of the molar value.

LFA-1 binding to ICAM-1, sequence (P20701 26-1170): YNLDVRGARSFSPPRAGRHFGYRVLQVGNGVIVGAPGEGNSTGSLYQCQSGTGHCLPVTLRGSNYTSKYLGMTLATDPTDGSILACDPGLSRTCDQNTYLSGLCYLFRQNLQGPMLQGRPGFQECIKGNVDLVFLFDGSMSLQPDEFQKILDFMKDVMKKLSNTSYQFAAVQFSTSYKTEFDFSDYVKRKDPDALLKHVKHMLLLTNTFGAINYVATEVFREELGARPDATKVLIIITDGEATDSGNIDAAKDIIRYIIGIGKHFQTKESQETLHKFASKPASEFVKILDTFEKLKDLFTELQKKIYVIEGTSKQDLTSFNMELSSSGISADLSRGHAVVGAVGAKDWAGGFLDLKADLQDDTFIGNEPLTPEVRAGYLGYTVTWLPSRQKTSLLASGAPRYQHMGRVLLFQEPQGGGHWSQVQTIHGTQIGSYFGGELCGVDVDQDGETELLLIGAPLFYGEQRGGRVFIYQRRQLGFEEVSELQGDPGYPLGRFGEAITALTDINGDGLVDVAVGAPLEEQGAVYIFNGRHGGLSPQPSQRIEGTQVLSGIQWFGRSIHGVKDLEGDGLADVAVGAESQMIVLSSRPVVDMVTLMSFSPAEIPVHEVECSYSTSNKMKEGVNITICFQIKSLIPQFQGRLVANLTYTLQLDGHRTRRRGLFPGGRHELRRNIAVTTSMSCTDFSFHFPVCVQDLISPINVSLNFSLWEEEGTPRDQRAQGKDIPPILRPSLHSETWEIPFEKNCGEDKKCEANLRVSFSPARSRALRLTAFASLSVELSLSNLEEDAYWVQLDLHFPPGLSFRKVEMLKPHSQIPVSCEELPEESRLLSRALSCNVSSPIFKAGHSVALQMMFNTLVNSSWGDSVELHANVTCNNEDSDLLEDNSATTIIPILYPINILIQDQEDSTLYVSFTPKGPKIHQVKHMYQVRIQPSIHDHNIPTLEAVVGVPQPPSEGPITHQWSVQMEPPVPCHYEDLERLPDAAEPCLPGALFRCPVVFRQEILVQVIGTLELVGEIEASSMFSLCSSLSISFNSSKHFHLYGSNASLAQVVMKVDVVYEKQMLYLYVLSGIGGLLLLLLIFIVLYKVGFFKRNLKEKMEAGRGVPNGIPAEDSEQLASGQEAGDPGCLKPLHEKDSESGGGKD
LFA-1 binding to ICAM-1, sequence (P05107 23-769): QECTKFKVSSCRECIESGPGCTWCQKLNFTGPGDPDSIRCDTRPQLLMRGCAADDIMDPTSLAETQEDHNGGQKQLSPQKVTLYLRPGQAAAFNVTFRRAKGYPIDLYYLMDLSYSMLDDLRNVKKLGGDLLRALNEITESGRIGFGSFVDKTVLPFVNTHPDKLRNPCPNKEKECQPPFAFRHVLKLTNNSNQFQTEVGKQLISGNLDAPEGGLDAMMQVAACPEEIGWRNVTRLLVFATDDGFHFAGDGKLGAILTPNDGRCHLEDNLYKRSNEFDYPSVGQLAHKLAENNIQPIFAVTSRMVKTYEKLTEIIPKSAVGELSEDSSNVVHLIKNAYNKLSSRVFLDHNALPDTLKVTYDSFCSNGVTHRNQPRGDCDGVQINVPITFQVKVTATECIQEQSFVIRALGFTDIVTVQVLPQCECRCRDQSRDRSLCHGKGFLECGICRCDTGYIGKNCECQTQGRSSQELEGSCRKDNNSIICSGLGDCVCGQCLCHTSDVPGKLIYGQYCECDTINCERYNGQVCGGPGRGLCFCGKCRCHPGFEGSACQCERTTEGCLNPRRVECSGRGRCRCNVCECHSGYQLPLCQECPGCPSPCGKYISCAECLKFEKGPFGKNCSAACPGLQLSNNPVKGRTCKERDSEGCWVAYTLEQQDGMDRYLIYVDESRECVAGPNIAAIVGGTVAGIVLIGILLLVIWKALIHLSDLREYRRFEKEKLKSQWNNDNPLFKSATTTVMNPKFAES

This test concerns the target LFA-1 binding to ICAM-1 (Homo sapiens, UniProt P05107+P20701). Briefly: Inhibition of LFA-1 binding to ICAM-1 (LFA-1/Biotin-sICAM-1 AlphaScreen molecular assay). The note with it: highest compound concentration 1 μM in 1% DMSO, 37° C., 90 minutes. An excerpt: Assay to Determine Inhibition of LFA-1 Binding to ICAM-1
This assay protocol is designed to study the direct antagonism, by a test compound, of the interaction of ICAM-1 with the Leukointegrin CD18/CD11a (LFA-1).
The LFA-1/Biotin-sICAM-1 molecular assay measures the ability of test compounds to inhibit binding of LFA-1 to Biotinylated-sICAM using AlphaScreen technology (Ref: Wilson, J, Rossi, C P, Carboni, S, Fremaux, C, Perrin, D, Soto, C, Kosco-Vilbois, M, and Scheer, A: A Homogeneous 384-Well High-Throughput Binding Assay for a TNF Receptor Using Alphascreen Technology. J Biomol Screen 2003; 8:522-532) that uses TS2/4(anti-LFA-1)-custom conjugated AlphaLisa acceptor beads and streptavidin-coated donor beads from PerkinElmer. The assay was performed in white OptiPlates-384 in a volume of 60 μL using assay buffer (Dulbecco's PBS containing calcium and magnesium, 2 mM MgCl2, 0.1 mM PMSF, 0.1% BSA, pH 7.1). To each well, Biotin-sICAM was added followed by purified LFA-1 (in buffer of 50 mM triethylamine, 150 mM NaCl, 1% beta octylglucoside, 2 mM MgCl2 neutralized to pH with 1M Tris-HCl, pH 7.5). For compound testing, compound was added in 5 uL to the above in 25 uL. LFA-1 and Biotin-sICAM-1 were used at concentrations that would yield a signal to background ratio of 8-10. The highest concentration of compound was 1 μM in 1% DMSO. Positive controls were wells without compound containing LFA-1, while blanks were wells without both compound and LFA-1. Plates were mixed and incubated at 37° C. for 90 minutes. This was followed by addition of 15 μL/well TS2/4-congugated acceptor beads diluted in PBS containing 0.1% BSA for a final concentration of 10 μg/mL. The plates were mixed and incubated in the dark for 30 minutes at room temperature followed by addition of 15 μL/well streptavidin-coated donor beads diluted in PBS containing 0.1% BSA at a final concentration of 15 μg/mL. The plates were mixed and incubated in the dark for 60 minutes at room temperature and then read on an EnVision Multilabel Reader using AlphaScreen 384-well OptiPlate protocol.
As for `C[C@@]1(Cc2ccc(C#N)cc2)C(=O)N(c2cc(Cl)cc(Cl)c2)c2ncc(C(=O)NC3(C(=O)NC4(c5cc(C(=O)N6CCN(S(C)(=O)=O)CC6)ccn5)CC4)CC3)n21` [compound 89], the negative logarithm of the IC50 (pIC50) was 8.85.
Under `C[C@@]1(Cc2ccc(C#N)cc2)C(=O)N(c2cc(Cl)cc(Cl)c2)c2ncc(C(=O)NC3(C(=O)NC4(c5ccc(C(=O)N6CCC6)cn5)CC4)CC3)n21` [compound 90] stands 9.54; under `C[C@@H](CO)NC(=O)c1ccc(C2(NC(=O)C3(NC(=O)c4cnc5n4[C@](C)(Cc4ccc(C#N)cc4)C(=O)N5c4cc(Cl)cc(Cl)c4)CC3)CC2)nc1` [compound 91], 9.09.
Under `C[C@@]1(Cc2ccc(C#N)cc2)C(=O)N(c2cc(Cl)cc(Cl)c2)c2ncc(C(=O)NC3(C(=O)NC4(c5cccc(C(=O)NCc6ccccn6)n5)CC4)CC3)n21` [compound 92] stands 8.89.
Under `C[C@@]1(Cc2ccc(C#N)cc2)C(=O)N(c2cc(Cl)cc(Cl)c2)c2ncc(C(=O)NC3(C(=O)NC4(c5ccc(C(=O)NCCc6ccccn6)cn5)CC4)CC3)n21` [compound 93] stands 9.21.
Take `C[C@@]1(Cc2ccc(OC(F)(F)F)cc2)C(=O)N(c2cc(Cl)cc(Cl)c2)c2ncc(C(=O)NC3(C(=O)NC4(c5ccc(C(N)=O)cn5)CC4)CC3)n21` [compound 94]: the negative-log IC50 (pIC50) was 8.82.
For `C[C@@]1(Cc2ccc(C#N)cc2)C(=O)N(c2cc(Cl)cc(Cl)c2)c2ncc(C(=O)NC3(C(=O)NC4(c5cc(C(=O)NCCc6cccnc6)ccn5)CC4)CC3)n21` [compound 95] the value was 9.00; for `C[C@@]1(Cc2ccc(C#N)cc2)C(=O)N(c2cc(Cl)cc(Cl)c2)c2ncc(C(=O)NC3(C(=O)NC4(c5cc(C(=O)NCC(O)CO)ccn5)CC4)CC3)n21` (stereo partly drawn) [compound 96], 9.13.
For `C[C@@]1(Cc2ccc(C#N)cc2)C(=O)N(c2cc(Cl)cc(Cl)c2)c2ncc(C(=O)NC3(C(=O)NC4(c5cc(C(=O)N6CCNCC6)ccn5)CC4)CC3)n21` [compound 97] the value was 9.00; for `C[C@@]1(Cc2ccc(C#N)cc2)C(=O)N(c2cc(Cl)cc(Cl)c2)c2ncc(C(=O)NC3(C(=O)NC4(c5cccc(C(N)=O)n5)CC4)CC3)n21` [compound 98], 8.96.
For `C[C@H](O)CNC(=O)c1ccc(C2(NC(=O)C3(NC(=O)c4cnc5n4[C@](C)(Cc4ccc(C#N)cc4)C(=O)N5c4cc(Cl)cc(Cl)c4)CC3)CC2)nc1` [compound 99] the value was 9.28; for `COCCNC(=O)c1ccnc(C2(NC(=O)C3(NC(=O)c4cnc5n4[C@](C)(Cc4ccc(C#N)cc4)C(=O)N5c4cc(Cl)cc(Cl)c4)CC3)CC2)c1` [compound 100], 9.05.
For `C[C@@]1(Cc2ccc(C#N)cc2)C(=O)N(c2cc(Cl)cc(Cl)c2)c2ncc(C(=O)NC3(C(=O)NC4(c5ccc(C(=O)N6CCCC(C(N)=O)C6)cn5)CC4)CC3)n21` (stereo partly drawn) [compound 101], the negative logarithm of the IC50 (pIC50) was 9.38.
Molecule `C[C@@H](NC(=O)c1ccc(C2(NC(=O)C3(NC(=O)c4cnc5n4[C@](C)(Cc4ccc(C#N)cc4)C(=O)N5c4cc(Cl)cc(Cl)c4)CC3)CC2)nc1)C(N)=O` [compound 102] had a pIC50 of 9.43.
For `C[C@@]1(Cc2ccc(C#N)cc2)C(=O)N(c2cc(Cl)cc(Cl)c2)c2ncc(C(=O)NC3(C(=O)NC4(c5cc(C(=O)N6CC[C@H](O)C6)ccn5)CC4)CC3)n21` [compound 103] the value was 9.12; for `C[C@@]1(Cc2ccc(C#N)cc2)C(=O)N(c2cc(Cl)cc(Cl)c2)c2ncc(C(=O)NC3(C(=O)NC4(c5cccc(C(=O)N6CCC6)n5)CC4)CC3)n21` [compound 104], 8.64; for `CC(C)(CO)NC(=O)c1ccnc(C2(NC(=O)C3(NC(=O)c4cnc5n4[C@](C)(Cc4ccc(C#N)cc4)C(=O)N5c4cc(Cl)cc(Cl)c4)CC3)CC2)c1` [compound 105], 9.19.
For `CN(C)CCNC(=O)c1ccc(C2(NC(=O)C3(NC(=O)c4cnc5n4[C@](C)(Cc4ccc(C#N)cc4)C(=O)N5c4cc(Cl)cc(Cl)c4)CC3)CC2)nc1` [compound 106] the value was 9.09; for `C[C@@]1(Cc2ccc(C#N)cc2)C(=O)N(c2cc(Cl)cc(Cl)c2)c2ncc(C(=O)NC3(C(=O)NC4(c5cc(C(=O)NCCC(N)=O)ccn5)CC4)CC3)n21` [compound 107], 9.52.
For `CC(C)(NC(=O)c1ccnc(C2(NC(=O)C3(NC(=O)c4cnc5n4[C@](C)(Cc4ccc(C#N)cc4)C(=O)N5c4cc(Cl)cc(Cl)c4)CC3)CC2)c1)c1ccccc1` [compound 108] the value was 8.52.
The molecule `C[C@@]1(Cc2ccc(C#N)cc2)C(=O)N(c2cc(Cl)cc(Cl)c2)c2ncc(C(=O)NC3(C(=O)NC4(c5ccc(C(=O)NCCn6ccnc6)cn5)CC4)CC3)n21` [compound 109] showed a pIC50 of 9.39.
Under `C[C@@]1(Cc2ccc(C#N)cc2)C(=O)N(c2cc(Cl)cc(Cl)c2)c2ncc(C(=O)NC3(C(=O)NC4(c5cc(C(=O)N6CCCCC6)ccn5)CC4)CC3)n21` [compound 110] stands 8.47; under `CN(C)C1CCN(C(=O)c2cccc(C3(NC(=O)C4(NC(=O)c5cnc6n5[C@](C)(Cc5ccc(C#N)cc5)C(=O)N6c5cc(Cl)cc(Cl)c5)CC4)CC3)n2)C1` (stereo partly drawn) [compound 111], 8.60; under `C[C@@]1(Cc2ccc(C#N)cc2)C(=O)N(c2cc(Cl)cc(Cl)c2)c2ncc(C(=O)NC3(C(=O)NC4(c5ccc(C(=O)NCCC(N)=O)cn5)CC4)CC3)n21` [compound 112], 9.55.
For `CC(=O)N1CCN(C(=O)c2ccnc(C3(NC(=O)C4(NC(=O)c5cnc6n5[C@](C)(Cc5ccc(C#N)cc5)C(=O)N6c5cc(Cl)cc(Cl)c5)CC4)CC3)c2)CC1` [compound 113] the value was 8.89; for `C[C@@]1(Cc2ccc(C#N)cc2)C(=O)N(c2cc(Cl)cc(Cl)c2)c2ncc(C(=O)NC3(C(=O)NC4(c5cc(C(=O)NC6CCC6)ccn5)CC4)CC3)n21` [compound 114], 9.08.
For `C[C@@]1(Cc2ccc(C#N)cc2)C(=O)N(c2cc(Cl)cc(Cl)c2)c2ncc(C(=O)NC3(C(=O)NC4(c5cc(C(=O)N6CCC[C@@H]6C(N)=O)ccn5)CC4)CC3)n21` [compound 115] the value was 9.48; for `CC(=O)N(C)C1CCN(C(=O)c2ccc(C3(NC(=O)C4(NC(=O)c5cnc6n5[C@](C)(Cc5ccc(C#N)cc5)C(=O)N6c5cc(Cl)cc(Cl)c5)CC4)CC3)nc2)C1` (stereo partly drawn) [compound 116], 9.12.
Regarding `CC(C)(O)CNC(=O)c1ccc(C2(NC(=O)C3(NC(=O)c4cnc5n4[C@](C)(Cc4ccc(C#N)cc4)C(=O)N5c4cc(Cl)cc(Cl)c4)CC3)CC2)nc1` [compound 117], the negative-log IC50 (pIC50) was 9.43.
For `C[C@@H](NC(=O)c1cccc(C2(NC(=O)C3(NC(=O)c4cnc5n4[C@](C)(Cc4ccc(C#N)cc4)C(=O)N5c4cc(Cl)cc(Cl)c4)CC3)CC2)n1)c1ccccc1` [compound 118] the value was 7.48.
For `C[C@@]1(Cc2ccc(C#N)cc2)C(=O)N(c2cc(Cl)cc(Cl)c2)c2ncc(C(=O)NC3(C(=O)NC4(c5ccc(C(=O)N6CCCC6)cn5)CC4)CC3)n21` [compound 119] the value was 9.14; for `CC(CO)NC(=O)c1ccnc(C2(NC(=O)C3(NC(=O)c4cnc5n4[C@](C)(Cc4ccc(C#N)cc4)C(=O)N5c4cc(Cl)cc(Cl)c4)CC3)CC2)c1` (stereo partly drawn) [compound 120], 9.12.
Under `CC(=O)NCCNC(=O)c1ccc(C2(NC(=O)C3(NC(=O)c4cnc5n4[C@](C)(Cc4ccc(C#N)cc4)C(=O)N5c4cc(Cl)cc(Cl)c4)CC3)CC2)nc1` [compound 121] stands 9.43.
On to `C[C@@]1(Cc2ccc(C#N)cc2)C(=O)N(c2cc(Cl)cc(Cl)c2)c2ncc(C(=O)NC3(C(=O)NC4(c5cc(C(=O)N6CCC[C@H]6C(N)=O)ccn5)CC4)CC3)n21` [compound 122], for which the pIC50 was 8.77.
For `C[C@@]1(Cc2ccc(C#N)cc2)C(=O)N(c2cc(Cl)cc(Cl)c2)c2ncc(C(=O)NC3(C(=O)NC4(c5cccc(C(=O)NC6CC6)n5)CC4)CC3)n21` [compound 123] the value was 9.47; for `CN(C)C(=O)c1ccc(C2(NC(=O)C3(NC(=O)c4cnc5n4[C@](C)(Cc4ccc(C#N)cc4)C(=O)N5c4cc(Cl)cc(Cl)c4)CC3)CC2)nc1` [compound 124], 8.68.
Molecule `C[C@@]1(Cc2ccc(C#N)cc2)C(=O)N(c2cc(Cl)cc(Cl)c2)c2ncc(C(=O)NC3(C(=O)NC4(c5cccc(C(=O)N6CCCCC6CO)n5)CC4)CC3)n21` (stereo partly drawn) [compound 125] showed a pIC50 of 9.55.
As for `C[C@@]1(Cc2ccc(C#N)cc2)C(=O)N(c2cc(Cl)cc(Cl)c2)c2ncc(C(=O)NC3(C(=O)NC4(c5ccc(C(=O)NC6CC6)cn5)CC4)CC3)n21` [compound 126], the negative-log IC50 (pIC50) is 8.59.
Under `C[C@@]1(Cc2ccc(C#N)cc2)C(=O)N(c2cc(Cl)cc(Cl)c2)c2ncc(C(=O)NC3(C(=O)NC4(c5cccc(C(=O)NCC(N)=O)n5)CC4)CC3)n21` [compound 127] stands 9.30.

These data come from patent US8481750B2 (Boehringer Ingelheim International GmbH, priority 2009, dated 2013).
